Assay results reported in publication PMC8229129, “Local Colonic Administration of a Serine Protease Inhibitor Improves Post-Inflammatory Visceral Hypersensitivity in Rats” (Pharmaceutics, 2021).
Values joined by “and” are separate entries in the source; they are usually repeats but may differ in a detail not shown here. Identical values can stand only once.

Assays:
[1] = system: visceral hypersensitivity in post-colitis rats; set-up: method as in PMID 29911328; details: TNBS-induced post-inflammatory rats, intraperitoneally; cited from earlier work
tryptase = system: tryptase; set-up: method as in PMID 29911328; details: in vitro; cited from earlier work
[2] = system: MPO activity in colonic tissue; assay: Colonic myeloperoxidase (MPO) activity; assay type: in vivo, Sprague–Dawley rats; details: for MPO Activity, Day of VMR: mean ± SEM, n = 8, significant effect of treatment
Description: Finally, colonic MPO activity was determined in a full-thickness colonic segment (±30 mg) as published previously. MPO is a pro-inflammatory enzyme stored in the azurophilic granules of neutrophilic granulocytes and monocytes. […] One unit (U) of MPO activity is defined as the amount of enzyme required to convert 1 µmol H2O2 to H2O within 1 min at 25 °C and is expressed as U/g tissue.

[3] = Plasma concentrations after intracolonic administration (LC-MS/MS); assay type: in vivo, Sprague–Dawley rats; details: rat; for Plasma concentration: intracolonic 5 mg/kg
Description: (§1) To evaluate the pharmacokinetic properties of UAMC-00050, it was administered in male Sprague–Dawley rats (200–225 g) either colonically (5 mg/kg, in a volume of 200 µL 5% DMSO solution) or intravenously (1 mg/kg in a volume of 200 µL 5% DMSO solution). Plasma samples were collected after 5, 15, 30, 45, 60, 90, 120, and 180 min via the tail vein and stored at −80 °C until analysis.
(§2) Sample preparation and analysis of plasma samples consisted of protein precipitation followed by direct injection in a liquid chromatography–tandem mass spectrometry (LC-MS/MS) instrument. Briefly, 100 µL of plasma was spiked with 20 µL of nordazepam-D5 used as internal standard for quantification (yielding in a final concentration of 485 ng/mL) and afterwards 180 µL of acetonitrile was added to precipitate proteins. Subsequently, the samples were vortexed for 2.5 min at 2000× g and centrifuged for 5 min at 10,000× g. In a next step, 100 µL of the supernatant was transferred to a 0.20 µm centrifugal filter to remove remaining particles. After centrifugation for 5 min at 10,000× g, the remaining filtrate was transferred to an autosampler vial ready to be analyzed with LC-MS/MS. A seven-level point calibration curve with final concentrations ranging between 5 and 1000 ng/mL and a curve weighting factor of 1/x^2 was prepared in blank mouse plasma using different working solution standards of UAMC-00050 and a fixed amount of internal standard. The lower limit of quantification of the method was 5 ng/mL.
(§3) A gradient was applied as follows: 0–0.5 min: 5% B; 0.5–10 min 5–100% B; 10–12 min 100% B; and 12–12.1 min 5% B. The total run time was 18 min and the injection volume was set to 5 µL. Detection and quantification of UAMC-00050 were performed with an Agilent 6410 triple quadrupole MS system with an electrospray interface (ESI) operating in positive ionization mode. The following source parameters were applied: gas temperature 350 °C, gas flow 10 L/min, nebulizer 35 psi, and capillary voltage 4000 V. Compound-dependent MS parameters are summarized in Table 1. The most abundant transition of UAMC-00050 was used as quantifier and the other transitions were used for confirmation (qualifiers). For compound confirmation, the following criteria were used: the quantifier/qualifier ratio should fall within ±15% of the ratio observed in calibrators and the relative retention time should fall within 2.5% of the values observed in the calibrators.

[4] = Observation of side-effects after administration in pharmacokinetic experiments; assay type: in vivo; details: rats, within 180 min after administration (1 mg/kg i.v. or 5 mg/kg intracolonic)
Description: as §1

[5] = Pharmacokinetics after intravenous administration (plasma, LC-MS/MS, PKSolver two-compartment model); assay type: in vivo, Sprague–Dawley rats; details: rat, i.v. 1 mg/kg
Description: as §1, §2, §3
All data are presented as mean ± SEM or as median (IQR). Pharmacokinetic analysis and modeling of the plasma concentration–time data was performed using PKSolver. Other statistical analysis and data visualization processes were performed using R software (version 4.0.3) and GraphPad Prism (version 7.04). The nominal significance level was 0.05 for all tests. The development of body weight, VMR results, and colonic compliance were assessed with generalized estimating equations (GEE) using an unstructured working correlation matrix, followed by Fisher’s least significant difference (LSD) post hoc test on prespecified pairwise comparisons of interest. Inflammatory parameters were analyzed using two-way analysis of variance (ANOVA), followed by Student–Newman–Keuls (SNK) post hoc testing when applicable. To evaluate the differences in proteolytic activities between control, post-colitis, treated, and untreated rats, a two-way ANOVA was conducted. Main effects were tested on split files with a Mann–Whitney U test with Bonferroni correction. To assess correlations between specific fecal or colonic proteolytic activities and inflammatory parameters, the pairwise comparisons of interest were determined a priori. Spearman’s rank order correlation coefficient was used and the Holm–Bonferroni method was applied to correct for multiplicity.

Question: Which results are given for `CC(=O)Nc1ccc(OP(=O)(Oc2ccc(NC(C)=O)cc2)C(Cc2ccc(N=C(N)N)cc2)NC(=O)OCc2ccccc2)cc1.Cl` (stereo not shown) [UAMC-00050]?
Answer: Dose required to obtain complete reversal of visceral hypersensitivity [1]: 1.0 mg/kg; inhibition of tryptase (tryptase): efficiently inhibits; MPO Activity, Day of VMR ([2]; control rats, 5.0 mg/kg intracolonic, vehicle 0.3 ± 0.1): 0.6 ± 0.2 U/g tissue; MPO Activity, Day of VMR ([2]; post-colitis rats, 0.1 mg/kg intracolonic, vehicle 0.3 ± 0.2): 2.0 ± 0.7 U/g tissue; MPO Activity, Day of VMR ([2]; post-colitis rats, 1.0 mg/kg intracolonic, vehicle 0.3 ± 0.2): 2.0 ± 0.5 U/g tissue; MPO Activity, Day of VMR ([2]; post-colitis rats, 2.5 mg/kg intracolonic, vehicle 0.3 ± 0.2): 2.1 ± 0.5 U/g tissue; MPO Activity, Day of VMR ([2]; post-colitis rats, 5.0 mg/kg intracolonic, vehicle 0.3 ± 0.2): 1.7 ± 0.5 U/g tissue; Effect on colonic MPO activity ([2]; single intracolonic administration, both control and post-colitis animals): increased; Plasma concentration after intracolonic administration as share of plasma concentration after intravenous administration ([3]; 5 min after administration, 5 mg/kg intracolonic versus 1 mg/kg intravenous): 5.4%; Plasma concentration ([3]; 30–180 min after administration, lower limit of quantification 5 ng/mL): below the lower limit of quantification; Plasma concentration ([3]; 5 min after administration, mean ± SEM, n = 5): 14.1 ± 2.9 ng/mL; Plasma concentration ([3]; 15 min after administration, mean ± SEM, n = 5): 10.3 ± 1.3 ng/mL; Side-effects [4]: No side-effects; k12 ([5]; distribution to the peripheral compartment): 0.028 min⁻¹; k21 ([5]; redistribution from peripheral to central compartment): 0.014 min⁻¹; A ([5]; two-compartment model): 500.7 ng/mL; AUC 0-inf ([5]; two-compartment model): 5915 ng·min/mL; AUC 0-t ([5]; two-compartment model): 5422 ng·min/mL; AUMC ([5]; two-compartment model): 200,489 ng/mL*min2; Alpha ([5]; two-compartment model): 0.119 min⁻¹; B ([5]; two-compartment model): 17.9 ng/mL; Beta ([5]; two-compartment model): 0.010 min⁻¹; C0 ([5]; two-compartment model): 518.7 ng/mL; CL ([5]; two-compartment model): 0.0005072 (mg)/(ng/mL)/min; CL2 ([5]; two-compartment model): 0.0001621 (mg)/(ng/mL)/min; MRT ([5]; two-compartment model): 33.9 min; V ([5]; two-compartment model): 0.006 (mg)/(ng/mL); V2 ([5]; two-compartment model): 0.011 (mg)/(ng/mL); Vss ([5]; two-compartment model): 0.017 mg/(ng/mL); k10 ([5]; two-compartment model): 0.087 min⁻¹; k12 ([5]; two-compartment model): 0.028 min⁻¹; k21 ([5]; two-compartment model): 0.014 min⁻¹; t1/2Beta ([5]; two-compartment model): 66.5 min; t1/2Alpha ([5]; two-compartment model, 1 mg/kg): 5.800 min and 5.8 min
